{"source": "patent US20230248741A1", "about": "“Compositions and Methods for Lowering Triglycerides in a Subject with Reduced Kidney Function and Diabetes Mellitus” (Amarin Pharmaceuticals Ireland Limited, priority 2018, published 2023)", "assay_type_in_all_cases": "in vivo, human", "key": {"[1]": {"tested_on": "patients with chronic kidney disease (eGFR <60 mL/min/1.73 m^2 for ≥3 months)", "assay": "ANCHOR post-hoc (CKD): renal parameters and TEAEs", "protocol": "CVD-related (e.g., atherogenic) parameters were analyzed in a post-hoc study of 55 patients from the multi-center, placebo-controlled, randomized double-blind, 12-week study described in Example 1. These 55 patients have chronic kidney disease (e.g., eGFR<60 mL/min/1.73 m^2 for ≥3 months). There was no lower limit of eGFR specified. Analysis: The median difference in percent change from baseline between 4 g/day of E-EPA and placebo for the primary efficacy variable and additional assessments were estimated using the Hodges-Lehmann method (P values from the Wilcoxon rank-sum test for treatment comparisons). Using the Hodges-Lehmann method, departures from normal distribution were observed; for normally distributed parameters, an analysis of covariance model was used with least squares (LS) means and standard errors (SE). Missing values were imputed using the last-observation-carried-forward method. For all post hoc analyses, the alpha for statistical significance was 0.05."}, "[2]": {"tested_on": "subjects with Age-Associated Memory Impairment", "assay": "Safety and tolerability (TEAEs), 6-week AAMI study", "protocol": "All randomized subjects that received at least 1 dose of study medication were included in the Safety Population.\nSafety evaluations were based on the safety population. Safety and tolerability were assessed in terms of AEs, vital signs, 12-lead ECG, clinical laboratory data, medical history, and study drug compliance. Safety and tolerability data were presented by treatment group."}, "[3]": {"tested_on": "patients with eGFR <90 mL/min/1.73 m^2 for ≥3 months and hsCRP ≥2.0 mg/L", "assay": "ANCHOR post-hoc: lipid parameters", "details": "4 g/day; 12 weeks; P<0.0001", "protocol": "CVD-related (e.g., atherogenic) parameters were analyzed in a post-hoc study of 152 patients from the multi-center, placebo-controlled, randomized double-blind, 12-week study described in Example 1. These 152 patients have reduced kidney reduced function (e.g., eGFR<90 mL/min/1.73 m^2 for ≥3 months) and hsCRP≥2.0 mg/L.\nSubjects: 72 patients were randomized to E-EPA and 80 patients were randomized to placebo. In total, atherogenic parameters were analyzed in all 152 patients, 54% of which were male and 99% of which were white. The mean age of the 152 patients was 64 years old.\nThe primary objective of this post-hoc study, was to determine if and how 4 g of daily of >96% E-EPA, compared to placebo, affects patients with reduced kidney function, elevated hsCRP (e.g, hsCRP≥2.0 mg/L), and high triglyceride levels. […] CVD-parameters were analyzed for median difference in percent change from baseline to week 12 in subjects receiving 4 g/day of E-EPA and those receiving the placebo.\nAnalysis: The median difference in lipid/lipoprotein, apolipoprotein, and inflammatory parameters were determined from baseline to week 12 for 4/g day of E-EPA compared to placebo."}, "[4]": {"tested_on": "patients with fasting TG ≥200 and <500 mg/dl despite statin therapy", "assay": "ANCHOR study, entire population: fasting TG", "details": "4 g/day", "protocol": "A multi-center, placebo-controlled, randomized, double-blind, 12-week study is performed to evaluate the efficacy and safety of >96% E-EPA in patients with fasting triglyceride levels ≥200 mg/dl and <500 mg/dl despite statin therapy (the mean of two qualifying entry values needs to be ≥185 mg/dl and at least one of the values needs to be ≥200 mg/dl). The primary objective of the study is to determine the efficacy of >96% E-EPA 2 g daily and 4 g daily, compared to placebo, in lowering fasting TG levels in patients with high risk for cardiovascular disease and with fasting TG levels ≥200 mg/dL and <500 mg/dL, despite treatment to LDL-C goal on statin therapy.\nThe primary efficacy variable for the double-blind treatment period is percent change in TG from baseline to Week 12 endpoint. […]"}, "[5]": {"details": "4 g/day group, before treatment"}}}
{"molecule": "CC/C=C\\C/C=C\\C/C=C\\C/C=C\\C/C=C\\CCCC(=O)OCC", "note": "[E-EPA, ethyl eicosapentaenoate]", "values": [{"measurement": "BUN at week 12, median (IQR)", "setting": "[1]; 4 g/day", "result": "22.5 (11.0) mg/dL"}, {"measurement": "Nausea, nasopharyngitis, and arthralgia", "setting": "[1]; 4 g/day", "result": "not reported by any patients"}, {"measurement": "eGFR at week 12, median (IQR)", "setting": "[1]; 4 g/day", "result": "56.0 (12.9) mL/min/1.73 m^2"}, {"measurement": "serum creatinine at week 12, median (IQR)", "setting": "[1]; 4 g/day", "result": "1.2 (0.4) mg/dL"}, {"measurement": "serum creatinine, BUN, or eGFR from baseline to week 12 compared to placebo", "setting": "[1]; 4 g/day", "result": "did not produce significant changes"}, {"measurement": "BUN at baseline, median (IQR)", "setting": "[1]; [5]", "result": "24.5 (12.0) mg/dL"}, {"measurement": "eGFR at baseline, median (IQR)", "setting": "[1]; [5]", "result": "55.0 (13.8) mL/min/1.73 m^2"}, {"measurement": "serum creatinine at baseline, median (IQR)", "setting": "[1]; [5]", "result": "1.2 (0.3) mg/dL"}, {"measurement": "patients with diarrhea", "setting": "[1]; 4 g/day, 2 patients", "result": 10.5, "unit": "%"}, {"measurement": "patients with TEAE", "setting": "[1]; 4 g/day, 11 of 19 patients", "result": 57.9, "unit": "%"}, {"measurement": "serum albumin", "setting": "[1]; 4 g/day, 12 weeks", "result": "no significant median changes from baseline"}, {"measurement": "eGFR, median difference in change from baseline compared with placebo", "setting": "[1]; 4 g/day, P=0.1983", "result": "−7.8", "unit": "%"}, {"measurement": "serum creatinine, median difference in change from baseline compared with placebo", "setting": "[1]; 4 g/day, P=0.1983", "result": 6.5, "unit": "%"}, {"measurement": "BUN, median difference in change from baseline compared with placebo", "setting": "[1]; 4 g/day, P=0.5291", "result": 5.5, "unit": "%"}, {"measurement": "BUN, median difference in change from baseline compared with placebo", "setting": "[1]; 4 g/day, P=0.5471", "result": 1.0, "unit": "mg/dL"}, {"measurement": "subjects with nausea Possibly Related to the study drug", "setting": "[2]; 1 g E-EPA cohort", "result": "two"}, {"measurement": "TEAE Probably Related to the study drug", "setting": "[2]; 1 g E-EPA, one subject", "result": "nausea"}, {"measurement": "subjects with nausea Possibly Related to the study drug", "setting": "[2]; 2 g E-EPA cohort", "result": "one"}, {"measurement": "Serious Adverse Event (worsening epigastric chest pain), relation to study drug", "setting": "[2]; 2 g E-EPA, one subject", "result": "unrelated to the study drug"}, {"measurement": "subjects with nausea Possibly Related to the study drug", "setting": "[2]; 4 g E-EPA cohort", "result": "two"}, {"measurement": "TEAE Probably Related to the study drug", "setting": "[2]; 4 g E-EPA, one subject", "result": "diarrhea"}, {"measurement": "SAE reported", "setting": "[2]; E-EPA 2 g treatment group", "result": "One"}, {"measurement": "subjects discontinued due to TEAEs", "setting": "[2]; E-EPA 2 g treatment group", "result": 2, "unit": "subjects"}, {"measurement": "TEAEs reported", "setting": "[2]; E-EPA treatment groups (1, 2, 4 g), placebo groups 34 events", "result": 105, "unit": "events"}, {"measurement": "TEAEs Definitely Related to the study drug", "setting": "[2]; all groups", "result": "No TEAEs were Definitely Related to the study drug"}, {"measurement": "deaths during the study", "setting": "[2]; all groups", "result": "no deaths"}, {"measurement": "reduction of triglycerides compared to placebo", "setting": "[3]", "result": "about 16.9%"}, {"measurement": "median TGs reduction from baseline", "setting": "[4]", "result": "−21.5", "unit": "%"}]}
